Experimental data: ChEMBL document CHEMBL3352391, “Trichormamides A and B with Antiproliferative Activity from the Cultured Freshwater Cyanobacterium Trichormus sp. UIC 10339” (J Nat Prod, 2014)

Key:
MDA-MB-435 = assay: Antiproliferative activity against human MDA-MB-435 cells after 72 hrs by MTS assay; format: functional, cell-based; settings: MDA-MB-435, 72 h
HT-29 = assay: Antiproliferative activity against human HT-29 cells after 72 hrs by MTS assay; format: functional, cell-based; settings: HT-29, 72 h

CCCCCCC[C@@H]1CC(=O)N[C@@H]([C@@H](C)CC)C(=O)N[C@H]([C@@H](O)C(C)C)C(=O)N[C@@H](CCO)C(=O)N[C@H]([C@@H](O)C(C)C)C(=O)N[C@@H](CCC(N)=O)C(=O)N(C)[C@@H]([C@@H](C)CC)C(=O)N[C@H](CO)C(=O)N[C@@H]([C@@H](C)O)C(=O)N2CCC[C@H]2C(=O)N[C@H](Cc2ccc(O)cc2)C(=O)N[C@@H]([C@@H](C)O)C(=O)N1
IC50 (MDA-MB-435): 800 nM
IC50 (HT-29): 1500 nM
